The source of these data is patent US8173631B2, “Cyclic amine compounds” (Daiichi Sankyo Company, Limited, priority 2008, dated 2012).

The target in the experiment is T1, human calcium-sensing receptor (CaSR) (Homo sapiens, UniProt P41180).
T1 construct: expressed in transfected cells
T1 sequence (P41180 20-1078): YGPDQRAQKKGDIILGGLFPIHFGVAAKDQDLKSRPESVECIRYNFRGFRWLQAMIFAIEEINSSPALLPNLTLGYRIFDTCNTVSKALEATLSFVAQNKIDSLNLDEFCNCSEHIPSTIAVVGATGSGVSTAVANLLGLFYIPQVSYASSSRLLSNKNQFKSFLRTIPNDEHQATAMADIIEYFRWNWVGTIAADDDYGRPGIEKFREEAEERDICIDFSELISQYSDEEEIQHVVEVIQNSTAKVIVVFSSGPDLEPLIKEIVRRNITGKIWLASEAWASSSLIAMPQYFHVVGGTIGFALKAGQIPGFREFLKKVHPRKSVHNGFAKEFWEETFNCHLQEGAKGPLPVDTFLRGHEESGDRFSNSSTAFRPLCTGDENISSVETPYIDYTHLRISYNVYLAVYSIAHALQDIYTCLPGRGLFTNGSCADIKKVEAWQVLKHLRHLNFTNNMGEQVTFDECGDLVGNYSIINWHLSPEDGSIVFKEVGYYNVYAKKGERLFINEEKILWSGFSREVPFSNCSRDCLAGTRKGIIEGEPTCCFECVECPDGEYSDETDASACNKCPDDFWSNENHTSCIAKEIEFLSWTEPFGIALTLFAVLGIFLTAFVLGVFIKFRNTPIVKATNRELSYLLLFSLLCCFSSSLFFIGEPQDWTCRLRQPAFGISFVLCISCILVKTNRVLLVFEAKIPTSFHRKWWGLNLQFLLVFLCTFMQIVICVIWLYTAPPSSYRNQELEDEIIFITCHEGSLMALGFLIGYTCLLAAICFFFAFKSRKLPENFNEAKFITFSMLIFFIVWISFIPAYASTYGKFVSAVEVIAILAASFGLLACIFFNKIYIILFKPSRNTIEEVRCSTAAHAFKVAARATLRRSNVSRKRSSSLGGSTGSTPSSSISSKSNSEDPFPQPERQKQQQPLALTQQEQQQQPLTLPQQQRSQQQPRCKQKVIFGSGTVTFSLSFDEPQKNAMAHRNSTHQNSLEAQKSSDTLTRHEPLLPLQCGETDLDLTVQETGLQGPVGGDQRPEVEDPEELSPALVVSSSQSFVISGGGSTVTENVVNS
In words: Inhibitory activity on calcium-sensing receptor (CaSR), intracellular calcium increase as indicator (FLIPR, CHO/hCaSR). In kind it is cell-based. To be noted: CHO cells stably expressing human CaSR; inhibition of intracellular Ca increase induced by extracellular CaCl2. On the procedure: Evaluation of inhibitory activity on calcium-sensing receptor (CaSR) using intracellular calcium increase as an indicator
The preparation which is prepared by adding CHO/hCaSR to F12 medium (manufactured by Invitrogen) containing 10% fetal bovine serum to have 2×10^5 cells/mL was applied to a 384-well in an amount of 50 μL/well, and then incubated overnight in a CO2 incubator. The culture supernatant was completely removed, the assay buffer (20 mM HEPES, HBSS (Ca and Mg free) containing 2.5 mM probenecid, pH 7.4) containing Calcium 3 (manufactured by Molecular Devices), i.e., a fluorescent intracellular calcium indicator, was added thereto in an amount of 25 μL/well, and the mixture was maintained for 1 hour in a CO2 incubator. Meanwhile, Calcium 3 was prepared according to the protocol enclosed in FLIPR Calcium 3 Assay Kit (manufactured by Molecular Devices). After maintaining it for 1 hour, a solution in which the test compound is prepared to have 2.1 to 20,000 nM (final concentration of 1.05 to 10,000 nM) by an assay buffer was added thereto in an amount of 25 μL/well, and maintained for 15 minutes in a CO2 incubator. Then, the CaCl2 solution prepared to have […] by using the assay buffer was added in an amount of 25 μL/well, and the resulting intracellular Ca increase (i.e., fluorescence intensity) was measured over time using a fluorescence imaging plate reader (FLIPR, manufactured by Molecular Devices). From the data obtained, the difference between the fluorescence intensity before the addition of CaCl2 solution and the maximum fluorescence intensity after the addition of CaCl2 solution was calculated, and the 50% inhibition concentration (IC50) of the test compound was obtained.

For the compound `CC[C@@H](OC[C@H](O)CN1CCC[C@H]1Cc1ccc(Cl)c(Cl)c1)c1cc(F)c(F)cc1CCC(=O)O` [Example 117], the IC50 – broadly, the concentration that inhibits the measured activity by half – is not above 3.02 µM.
Under `CC[C@@H](OC[C@H](O)CN1CCC[C@H]1Cc1ccc(C)c(Cl)c1)c1cccc(Cl)c1CCC(=O)O` [Example 142] stands not above 3.15 µM; under `Cc1ccc(C[C@@H]2CCCN2C[C@@H](O)COC(C)c2c(F)cccc2CCC(=O)O)cc1F` (stereo partly shown) [Example 31], not above 3.47 µM.
Under `Cc1ccc(C[C@@H]2CCCN2C[C@@H](O)CO[C@H](C)c2cc(F)cc(F)c2CCC(=O)O)cc1Cl` [Example 132] stands not above 3.23 µM.
Under `CC[C@@H](OC[C@H](O)CN1CCC[C@H]1Cc1ccc(C)c(Cl)c1)c1cc(F)cc(F)c1CCC(=O)O` [Example 140] stands not above 3.14 µM; under `Cc1cccc([C@@H](C)OC[C@H](O)CN2CCC[C@H]2Cc2ccc(Cl)c(Cl)c2)c1CCC(=O)O` [Example 162], not above 3.24 µM; under `Cc1ccc(C[C@@H]2CCCN2C[C@@H](O)CO[C@H](C)c2ccccc2CCCCC(=O)O)cc1F` [Example 13, 5-{2-[(1R)-1-({(2R)-3-[(2S)-2-(3-Fluoro-4-methylbenzyl)pyrrolidin-1-yl]-2-hydroxypropyl}oxy)ethyl]phenyl}pentanoic acid], not above 3.39 µM.
Take `CCC[C@@H](OC[C@H](O)CN1CCC[C@H]1Cc1ccc(C)c(F)c1)c1ccc(C)cc1CCC(=O)O` [Example 64]: the IC50 was not above 3.29 µM.
In the case of `CC[C@@H](OC[C@H](O)CN1CCC[C@H]1Cc1ccc(Cl)c(Cl)c1)c1ccc(C)cc1CCC(=O)O` [Example 102], the IC50 is not above 3.15 µM.
In the case of `Cc1ccc(C[C@@H]2CCCN2C[C@@H](O)CO[C@H](C)c2cccc(F)c2CCC(=O)O)cc1Cl` [Example 90], the IC50 is not above 3.35 µM.
Next, `CC[C@@H](OC[C@H](O)CN1CCC[C@H]1Cc1ccc(C)c(F)c1)c1ccccc1CCC(=O)O` [Example 19]: not above 3.5 µM; `COc1cccc([C@@H](C)OC[C@H](O)CN2CCC[C@H]2Cc2ccc(C)c(F)c2)c1CCCCC(=O)O` [Example 42]: not above 3.19 µM; `Cc1ccc(C[C@@H]2CCCN2C[C@@H](O)CO[C@H](C)c2cc(F)cc(F)c2CCC(=O)O)cc1F` [Example 27]: not above 3.34 µM.
Under `CCc1cc(C[C@@H]2CCCN2C[C@@H](O)CO[C@H](CC)c2cc(F)cc(F)c2CCC(=O)O)ccc1Cl` [Example 111] stands not above 3.05 µM.
Under `Cc1ccc(C[C@@H]2CCCN2C[C@@H](O)CO[C@H](C)c2ccccc2CCCCCCC(=O)O)cc1F` [Example 77] stands not above 3.2 µM.
`CCc1cc(C[C@@H]2CCCN2C[C@@H](O)CO[C@H](CC)c2ccc(C)cc2CCC(=O)O)ccc1Cl` [Example 103]: the IC50 was not above 3.19 µM.
Next, `CC[C@@H](OC[C@H](O)CN1CCC[C@H]1Cc1ccc(C)c(F)c1)c1ccc(Cl)cc1CCC(=O)O` [Example 95]: not above 3.25 µM; `CC[C@@H](OC[C@H](O)CN1CCC[C@H]1Cc1ccc(Cl)c(F)c1)c1cc(F)c(F)cc1CCC(=O)O` [Example 145]: not above 3.11 µM.
Under `Cc1ccc(C[C@@H]2C[C@@H](F)CN2C[C@@H](O)CO[C@H](C)c2ccccc2CCC(=O)O)cc1F` [Example 48] stands not above 3.47 µM; under `CCc1cc(C[C@@H]2CCCN2C[C@@H](O)CO[C@H](C)c2cc(F)c(F)cc2CCC(=O)O)ccc1Cl` [Example 147], not above 3.14 µM; under `C[C@@H](OC[C@H](O)CN1CCC[C@H]1Cc1ccc(Cl)c(Cl)c1)c1cccc(Cl)c1CCC(=O)O` [Example 151], not above 3.11 µM.
Take `Cc1ccc(C[C@@H]2CCCN2C[C@@H](O)CO[C@H](C)c2cc(F)ccc2CCC(=O)O)cc1F` [Example 8, 3-{4-Fluoro-2-[(1R)-1-({(2R)-3-[(2S)-2-(3-fluoro-4-methylbenzyl)pyrrolidin-1-yl]-2-hydroxypropyl}oxy)ethyl]phenyl}propanoic acid]: the IC50 was not above 3.47 µM.
Under `Cc1ccc(C[C@@H]2CCCN2C[C@@H](O)CO[C@H](C)c2cccc(C)c2CCC(=O)O)cc1F` [Example 3, 3-{2-[(1R)-1-({(2R)-3-[(2S)-2-(3-Fluoro-4-methylbenzyl)pyrrolidin-1-yl]-2-hydroxypropyl}oxy)ethyl]-6-methylphenyl}propanoic acid] stands not above 3.5 µM; under `Cc1ccc(C[C@@H]2CCCN2C[C@@H](O)CO[C@H](C)c2cccc(Cl)c2CCC(=O)O)cc1Cl` [Example 150], not above 3.24 µM.
In the case of `CC[C@@H](OC[C@H](O)CN1CCC[C@H]1Cc1ccc(Cl)c(Cl)c1)c1cc(F)ccc1CCC(=O)O` [Example 104], the IC50 was not above 3.12 µM.
Next, `Cc1cc(CCC(=O)O)c([C@@H](C)OC[C@H](O)CN2CCC[C@H]2Cc2ccc(C)c(Cl)c2)cc1F` [Example 174]: not above 3.25 µM.
Next, `Cc1ccc(C[C@@H]2CCCN2C[C@@H](O)CO[C@H](C)c2ccc(Cl)cc2CCCCC(=O)O)cc1F` [Example 81]: not above 3.16 µM.
With `CC[C@@H](OC[C@H](O)CN1CCC[C@H]1Cc1ccc(C)c(Cl)c1)c1ccc(C)cc1CCC(=O)O` [Example 136], the IC50 is not above 3.28 µM.
`CC[C@@H](OC[C@H](O)CN1CCC[C@H]1Cc1ccc(Cl)c(Cl)c1)c1ccc(Cl)cc1CCC(=O)O` [Example 100]: the IC50 is not above 3.03 µM.
Next, `CC[C@@H](OC[C@H](O)CN1CCC[C@H]1Cc1ccc(Cl)c(F)c1)c1cccc(Cl)c1CCC(=O)O` [Example 143]: not above 3.12 µM.
For the compound `CC[C@@H](OC[C@H](O)CN1CCC[C@H]1Cc1ccc(C)c(Cl)c1)c1cccc(OC)c1CCC(=O)O` [Example 171], the IC50 is not above 3.17 µM.
Take `CCc1cc(C[C@@H]2CCCN2C[C@@H](O)CO[C@H](CC)c2cccc(C)c2CCC(=O)O)ccc1Cl` [Example 122]: the IC50 is not above 3.19 µM.
Next, `C[C@@H](OC[C@H](O)CN1CCC[C@H]1Cc1ccc(Cl)c(F)c1)c1cc(F)c(F)cc1CCC(=O)O` [Example 149]: not above 3.2 µM; `CC[C@@H](OC[C@H](O)CN1CCC[C@H]1Cc1ccc(C)c(F)c1)c1cccc(C)c1CCC(=O)O` [Example 47]: not above 3.39 µM.
Under `C[C@@H](OC[C@H](O)CN1CCC[C@H]1Cc1ccc(F)c(F)c1)c1ccccc1CCC(=O)O` [Example 38] stands not above 3.58 µM; under `CC[C@@H](OC[C@H](O)CN1CCC[C@H]1Cc1ccc(C)c(F)c1)c1cccc(OC)c1CCC(=O)O` [Example 46], not above 3.28 µM; under `CCc1cc(C[C@@H]2CCCN2C[C@@H](O)CO[C@H](C)c2ccccc2CCC(=O)O)ccc1Cl` [Example 89], not above 3.38 µM.
Consider `COc1cc(F)cc([C@@H](C)OC[C@H](O)CN2CCC[C@H]2Cc2ccc(C)c(F)c2)c1CCC(=O)O` [Example 33], for which the IC50 was not above 3.25 µM.
Under `CCOc1cccc([C@@H](C)OC[C@H](O)CN2CCC[C@H]2Cc2ccc(C)c(F)c2)c1CCC(=O)O` [Example 71] stands not above 3.28 µM; under `C[C@@H](OC[C@H](O)CN1CCC[C@H]1Cc1ccc(Cl)c(F)c1)c1ccc(Cl)cc1CCC(=O)O` [Example 131], not above 3.21 µM.
For `CC[C@@H](OC[C@H](O)CN1CCC[C@H]1Cc1ccc(Cl)c(Cl)c1)c1cccc(OC)c1CCC(=O)O` [Example 115], the IC50 is not above 3.05 µM.
Next, `CCc1cccc(C[C@@H]2CCCN2C[C@@H](O)CO[C@H](C)c2ccccc2CCC(=O)O)c1` [Example 39]: not above 3.64 µM; `Cc1ccc(C[C@@H]2CCCN2C[C@@H](O)CO[C@@H](c2ccccc2CCC(=O)O)C2CC2)cc1F` [Example 29]: not above 3.41 µM.
